*1 amine or outer side, *2 acyl side, *3 side chain or, on linkers, in order; H or OH if unused. Where a SMILES comes first, the peptide text is derived from it. Bridges are numbered along the chain shown (N, C = ends). Roman numbers before positions name the chains, in order. [ ]: non-standard residue; d: D form. X1 = O=C([C@H](/C=C/c1ccccc1)N[*:1])[*:2]; Leu(4,5-dehydro) = C=C(C)C[C@H](N)C(=O)O; Phe(4-CN) = N#Cc1ccc(C[C@H](N)C(=O)O)cc1; Phe(3-Me) = Cc1cccc(C[C@H](N)C(=O)O)c1; Met(O2) = CS(=O)(=O)CC[C@H](N)C(=O)O; Ala(cPr) = N[C@@H](CC1CC1)C(=O)O; 2Pal = N[C@@H](Cc1ccccn1)C(=O)O; Met(O) = CS(=O)CC[C@H](N)C(=O)O; 2Thi = N[C@@H](Cc1cccs1)C(=O)O; Cha = N[C@@H](CC1CCCCC1)C(=O)O; Tle = CC(C)(C)[C@H](N)C(=O)O; Dab = NCC[C@H](N)C(=O)O; Nva = CCC[C@H](N)C(=O)O; Abu = CC[C@H](N)C(=O)O
Tests used:
Caco-2 [1] = experiment: Permeability from apical to basolateral side of human Caco-2 cell monolayers assessed as increase in lucifer yellow flux at 7.0 mM relative to untreated control; type: ADME, cell-based; conditions: caco-2, 7000 µM
Caco-2 [2] = experiment: Effect on integrity in human Caco-2 cell monolayers assessed as transepithelial resistance by epithelial voltohmmeter relative to control; type: ADME, cell-based; set-up: concentration or dose not given beside the values

Row | SMILES | fold change (FC) (Caco-2 [1]) | Activity (Caco-2 [2]) [%]
1 | C=CC[C@@H](NC(=O)[C@@H](N)Cc1ccccc1)C(=O)N[C@H](C(=O)NCC(=O)N[C@@H](CCCNC(=N)N)C(=O)N[C@@H](CC(C)C)C(=O)O)[C@@H](C)CC | 0.8 | 130
2 | C=CC[C@H](NC(=O)[C@@H](N)Cc1ccccc1)C(=O)N[C@H](C(=O)NCC(=O)N[C@@H](CCCNC(=N)N)C(=O)N[C@@H](CC(C)C)C(=O)O)[C@@H](C)CC | 103 | 20
3 | CC[C@H](C)[C@H](NC(=O)[C@H](CS)NC(=O)[C@@H](N)Cc1ccccc1)C(=O)NCC(=O)O (H-FCIG-OH) | 2.2 | 103
4 | CC[C@H](C)[C@H](NC(=O)[C@H](CS)NC(=O)[C@@H](N)Cc1ccccc1)C(=O)NCC(=O)N[C@@H](CCCNC(=N)N)C(=O)O (H-FCIGR-OH) | 31 | 21
5 | CC[C@H](C)[C@H](NC(=O)[C@H](CS)NC(=O)[C@@H](N)Cc1ccccc1)C(=O)NCC(=O)N[C@@H](CCCNC(=N)N)C(=O)N[C@@H](CC(C)C)C(=O)O (H-FCIGRL-OH) | 52 | 11
6 | CC[C@H](C)[C@H](NC(=O)[C@H](CC(=O)O)NC(=O)[C@@H](N)Cc1ccccc1)C(=O)NCC(=O)N[C@@H](CCCNC(=N)N)C(=O)N[C@@H](CC(C)C)C(=O)O (H-FDIGRL-OH) | 0.7 | 148
7 | CC[C@H](C)[C@H](NC(=O)[C@H](CCC(=O)O)NC(=O)[C@@H](N)Cc1ccccc1)C(=O)NCC(=O)N[C@@H](CCCNC(=N)N)C(=O)N[C@@H](CC(C)C)C(=O)O (H-FEIGRL-OH) | 1.3 | 104
8 | CC[C@H](C)[C@H](NC(=O)[C@H](Cc1cnc[nH]1)NC(=O)[C@@H](N)Cc1ccccc1)C(=O)NCC(=O)N[C@@H](CCCNC(=N)N)C(=O)N[C@@H](CC(C)C)C(=O)O (H-FHIGRL-OH) | 1 | 102
9 | CC[C@H](C)[C@H](NC(=O)[C@H](CCCCN)NC(=O)[C@@H](N)Cc1ccccc1)C(=O)NCC(=O)N[C@@H](CCCNC(=N)N)C(=O)N[C@@H](CC(C)C)C(=O)O (H-FKIGRL-OH) | 0.4 | 110
10 | CC[C@H](C)[C@H](NC(=O)[C@H](CC(C)C)NC(=O)[C@@H](N)Cc1ccccc1)C(=O)NCC(=O)N[C@@H](CCCNC(=N)N)C(=O)N[C@@H](CC(C)C)C(=O)O (H-FLIGRL-OH) | 1 | 121
11 | CC[C@H](C)[C@H](NC(=O)[C@H](CC(N)=O)NC(=O)[C@@H](N)Cc1ccccc1)C(=O)NCC(=O)N[C@@H](CCCNC(=N)N)C(=O)N[C@@H](CC(C)C)C(=O)O (H-FNIGRL-OH) | 1.5 | 83
12 | CC[C@H](C)[C@H](NC(=O)[C@H](CCC(N)=O)NC(=O)[C@@H](N)Cc1ccccc1)C(=O)NCC(=O)N[C@@H](CCCNC(=N)N)C(=O)N[C@@H](CC(C)C)C(=O)O (H-FQIGRL-OH) | 1.5 | 112
13 | CC[C@H](C)[C@H](NC(=O)[C@H](CCCNC(=N)N)NC(=O)[C@@H](N)Cc1ccccc1)C(=O)NCC(=O)N[C@@H](CCCNC(=N)N)C(=O)N[C@@H](CC(C)C)C(=O)O (H-FRIGRL-OH) | 2.2 | 102
14 | CC[C@H](C)[C@H](NC(=O)[C@H](CO)NC(=O)[C@@H](N)Cc1ccccc1)C(=O)NCC(=O)N[C@@H](CCCNC(=N)N)C(=O)N[C@@H](CC(C)C)C(=O)O (H-FSIGRL-OH) | 2.1 | 94
15 | CC[C@H](C)[C@H](NC(=O)[C@@H](NC(=O)[C@@H](N)Cc1ccccc1)[C@@H](C)O)C(=O)NCC(=O)N[C@@H](CCCNC(=N)N)C(=O)N[C@@H](CC(C)C)C(=O)O (H-FTIGRL-OH) | 3.9 | 66
16 | CC[C@H](C)[C@H](NC(=O)[C@@H](NC(=O)[C@@H](N)Cc1ccccc1)C(C)C)C(=O)NCC(=O)N[C@@H](CCCNC(=N)N)C(=O)N[C@@H](CC(C)C)C(=O)O (H-FVIGRL-OH) | 5.7 | 50
17 | CC[C@H](C)[C@H](NC(=O)[C@H](Cc1ccc(O)cc1)NC(=O)[C@@H](N)Cc1ccccc1)C(=O)NCC(=O)N[C@@H](CCCNC(=N)N)C(=O)N[C@@H](CC(C)C)C(=O)O (H-FYIGRL-OH) | 0.6 | 118

Row | SMILES | fold change (FC) (Caco-2 [1]) | Activity (Caco-2 [2]) [%]
18 | CC[C@H](C)[C@H](NC(=O)[C@H](Cc1ccccn1)NC(=O)[C@@H](N)Cc1ccccc1)C(=O)NCC(=O)N[C@@H](CCCNC(=N)N)C(=O)N[C@@H](CC(C)C)C(=O)O (H-F[2Pal]IGRL-OH) | 0.5 | 148
19 | CC[C@H](C)[C@H](NC(=O)[C@H](Cc1cccs1)NC(=O)[C@@H](N)Cc1ccccc1)C(=O)NCC(=O)N[C@@H](CCCNC(=N)N)C(=O)N[C@@H](CC(C)C)C(=O)O (H-F[2Thi]IGRL-OH) | 1.4 | 119
20 | CC[C@H](NC(=O)[C@@H](N)Cc1ccccc1)C(=O)N[C@H](C(=O)NCC(=O)N[C@@H](CCCNC(=N)N)C(=O)N[C@@H](CC(C)C)C(=O)O)[C@@H](C)CC (H-F[Abu]IGRL-OH) | 1.1 | 96
21 | CC[C@H](C)[C@H](NC(=O)[C@H](CC1CC1)NC(=O)[C@@H](N)Cc1ccccc1)C(=O)NCC(=O)N[C@@H](CCCNC(=N)N)C(=O)N[C@@H](CC(C)C)C(=O)O (H-F[Ala(cPr)]IGRL-OH) | 0.6 | 111
22 | CC[C@H](C)[C@H](NC(=O)[C@H](CC1CCCCC1)NC(=O)[C@@H](N)Cc1ccccc1)C(=O)NCC(=O)N[C@@H](CCCNC(=N)N)C(=O)N[C@@H](CC(C)C)C(=O)O (H-F[Cha]IGRL-OH) | 2.1 | 68
23 | CC[C@H](C)[C@H](NC(=O)[C@H](CCN)NC(=O)[C@@H](N)Cc1ccccc1)C(=O)NCC(=O)N[C@@H](CCCNC(=N)N)C(=O)N[C@@H](CC(C)C)C(=O)O (H-F[Dab]IGRL-OH) | 2.1 | 94
24 | C=C(C)C[C@H](NC(=O)[C@@H](N)Cc1ccccc1)C(=O)N[C@H](C(=O)NCC(=O)N[C@@H](CCCNC(=N)N)C(=O)N[C@@H](CC(C)C)C(=O)O)[C@@H](C)CC (H-F[Leu(4,5-dehydro)]IGRL-OH) | 1.9 | 115
25 | CC[C@H](C)[C@H](NC(=O)[C@H](CCS(C)(=O)=O)NC(=O)[C@@H](N)Cc1ccccc1)C(=O)NCC(=O)N[C@@H](CCCNC(=N)N)C(=O)N[C@@H](CC(C)C)C(=O)O (H-F[Met(O2)]IGRL-OH) | 0.7 | 110
26 | CC[C@H](C)[C@H](NC(=O)[C@H](CC[S+](C)[O-])NC(=O)[C@@H](N)Cc1ccccc1)C(=O)NCC(=O)N[C@@H](CCCNC(=N)N)C(=O)N[C@@H](CC(C)C)C(=O)O (stereo partly specified) (H-F[Met(O)]IGRL-OH) | 1.1 | 106
27 | CCC[C@H](NC(=O)[C@@H](N)Cc1ccccc1)C(=O)N[C@H](C(=O)NCC(=O)N[C@@H](CCCNC(=N)N)C(=O)N[C@@H](CC(C)C)C(=O)O)[C@@H](C)CC (H-F[Nva]IGRL-OH) | 1.6 | 98
28 | CC[C@H](C)[C@H](NC(=O)[C@H](Cc1cccc(C)c1)NC(=O)[C@@H](N)Cc1ccccc1)C(=O)NCC(=O)N[C@@H](CCCNC(=N)N)C(=O)N[C@@H](CC(C)C)C(=O)O (H-F[Phe(3-Me)]IGRL-OH) | 0.6 | 101
29 | CC[C@H](C)[C@H](NC(=O)[C@H](Cc1ccc(C#N)cc1)NC(=O)[C@@H](N)Cc1ccccc1)C(=O)NCC(=O)N[C@@H](CCCNC(=N)N)C(=O)N[C@@H](CC(C)C)C(=O)O (H-F[Phe(4-CN)]IGRL-OH) | 0.3 | 118
30 | CC[C@H](C)[C@H](NC(=O)[C@@H](NC(=O)[C@@H](N)Cc1ccccc1)C(C)(C)C)C(=O)NCC(=O)N[C@@H](CCCNC(=N)N)C(=O)N[C@@H](CC(C)C)C(=O)O (H-F[Tle]IGRL-OH) | 6.7 | 35
31 | CC[C@H](C)[C@H](NC(=O)[C@H](/C=C/c1ccccc1)NC(=O)[C@@H](N)Cc1ccccc1)C(=O)NCC(=O)N[C@@H](CCCNC(=N)N)C(=O)N[C@@H](CC(C)C)C(=O)O (H-F[X1]IGRL-OH) | 1 | 113
32 | CC[C@H](C)[C@H](N)C(=O)NCC(=O)N[C@@H](CCCNC(=N)N)C(=O)N[C@@H](CC(C)C)C(=O)O (H-IGRL-OH) | 0.9 | 70
33 | CC[C@H](C)[C@H](NC(=O)[C@H](CSSC[C@H](NC(=O)[C@@H](N)Cc1ccccc1)C(=O)N[C@H](C(=O)NCC(=O)N[C@@H](CCCNC(=N)N)C(=O)N[C@@H](CC(C)C)C(=O)O)[C@@H](C)CC)NC(=O)[C@@H](N)Cc1ccccc1)C(=O)NCC(=O)N[C@@H](CCCNC(=N)N)C(=O)N[C@@H](CC(C)C)C(=O)O (I: H-FCIGRL-OH / II: H-FCIGRL-OH; disulfide I:2-II:2) | 0.7 | 137

From ChEMBL document CHEMBL1156586, “Structure-activity relationship studies of permeability modulating peptide AT-1002” (Bioorg Med Chem Lett, 2008)
